In patent US9974755B2, “Induced expression of brain derived neurotrophic factor (BDNF) for treatment of neuromuscular, neurodegenerative, autoimmune, developmental and/or metabolic diseases” (Mitochon Pharmaceuticals, Inc., priority 2015, dated 2018):
Entries after “also recorded” stand apart in the source; their conditions may differ.

What was measured:
SIRT3 KO mice = assay: 6-OHDA dopaminergic degeneration, rotarod in SIRT3 KO mice (Parkinson's); type: in vivo, mouse; conditions: 14-Days oral gavage, 6-OHDA in right striatum, FIG. 7b
Method: (§1) The merits of treating Parkinson's Disease with MP101 (DNP) was evaluated in wildtype mice and SIRT3 KO mice with 6-OHDA injections after two weeks of MP101 treatment. We examined the neuroprotective effects of varying MP-101 doses (0.5, 1, 5 mg/kg) against dopaminergic degeneration of nigrostriatal neurons induced by a single unilateral stereotaxic injection of neurotoxin 6-hydroxydopamine (6-OHDA) in the right striatum of the brain of 2-3 month old male C57Bl/6 mice or SIRT3 KO mice. SIRT3 KO is a model of a heightened sensitivity to glutamate-induced calcium overload and excitotoxicity, and oxidative and mitochondrial stress, therefore ideal for evaluating Parkinson's Disease, Huntington's Disease and temporal lobe epilepsy.
(§2) FIGS. 7a and 7b show the effects of DNP (MP101) treatment for 14-Days by oral gavage in protecting dopaminergic neuronal loss when the right striatum is injected with 6-OHDA after the last day.

N171-82Q HD mice [1] = assay: Neuronal biomarkers DARPP32 and PSD95 in N171-82Q HD mice; type: in vivo, mouse
Method: (§3) MP101 (DNP) was used in a mouse model of Huntington's Disease, the “Fragment Model” N171-82 HD mice, to determine its neuroprotective effects. The N171-82 HD mice were treated with MP101 at 0.5, 1 and 5 mg/kg by oral gavage daily for greater than 17-weeks. At the age of 26-weeks (17-weeks of treatment), the mice were tested for changes in behavioral, loss of brain volume, spiny neurons and general neurons. FIGS. 8a, 8b, 8c, 8d, 8e, and 8f show the effects of DNP (MP101 drug treatment).
(§4) FIGS. 8a-8f show the effects of MP101 in the Huntington's Disease model N171-82Q after 13-weeks (age 22 weeks) and/or 17-weeks (age 26-weeks) of treatment with DNP.

[2] = system: Experimental Autoimmune Encephalomyelitis (EAE); assay: Spinal cord electron microscopy in the EAE mouse model of MS; type: in vivo; conditions: 5 mg/kg, Day-16 (peak of onset), vs placebo, FIG. 2d
Mecp2 mutant mice [3] = assay: Clasping test in Mecp2 mutant mice; type: in vivo, mouse; conditions: 1 mg/kg, 12-weeks of age, 1-month oral gavage, FIG. 4
Method: (§5) MP101 was tested in a model of Rett Syndrome using Mecp2 mutant mice. Rett Syndrome is a developmental disorder in young girls, with first symptoms starting at about 18-months of age, including reduced head growth. FIGS. 3a, 3b, 3c and 4 show the effects of treating these mutant mice with MP101 at 0.5, 1 mg/kg and 5 mg/kg by oral gavage.

N171-82Q HD mice [4] = assay: MRI brain volume in N171-82Q Huntington's Disease mice; type: in vivo, mouse; conditions: N171-82Q HD mice vs HD placebo
Method: as §3, §4

BDNF [5] = assay: BDNF protein levels by immunoblot in the EAE mouse model of MS; type: in vivo; conditions: for Intensity of the BDNF band (immunoblot): lumbal spinal cord, Day 42, treated Day 7 to Day 21, FIG. 2a
Text: The tissue was taken on Day 42 of the study during the recovery phase from the lumbal spinal cord of representative mice that were immunized on Day 1 with the MOG peptide, then treated with MP101 starting on Day 7 and stopping on Day 21. […] Untreated animals are shown as naïve. The changes in BDNF levels are therefore 3-weeks post-treatment with DNP (aka MP101).

Mecp2 mutant mice [6] = assay: Rotarod in Mecp2 mutant mice, a model of Rett Syndrome; type: in vivo, mouse; conditions: 8-weeks of age; 0.5, 1 and 5 mg/kg oral gavage vs mutant vehicle; FIG. 3a
Method: as §5
In FIGS. 3a and 3b, Mecp2 mutant mice, a model of Rett Syndrome, were treated with MP101 (DNP) at 6-weeks of age and tested on their coordination to walk on a rotating cylinder (rotarod). Wildtype mice are used as a benchmark for general decline in behavior compared to Mecp2 mutant mice treated with Vehicle, 0.5 mg/kg MP101, 1 mg/kg MP101 and 5 mg/kg MP101 by oral gavage.

wildtype mice = assay: Kanic acid model of epilepsy, seizure time; type: in vivo, mouse; conditions: FIG. 6
Method: DNP was also evaluated for a treatment of Epilepsy. The kanic acid model is an acute model of epilepsy caused by an injection in the right hippocampus of an analogue of glutamate (kanic acid) that over-stimulates the neurons causing death.

APP/PS1 mice = assay: Morris Water Maze in APP/PS1 mice (Alzheimer's); type: in vivo, mouse; conditions: 0.5, 1 and 5 mg/kg oral gavage for 4-months vs Vehicle, FIGS. 5a-5c
Method: In addition, Alzheimer's Disease, representing about 70% of all dementia cases, was evaluated using the APP/PS1 mice, which express the APPswe mutation and PS1deltaE9 mutation and develop relatively rapid Aβ pathology and cognitive deficits. At 4-months of age, the APP/PS1 mice were treated for 4-months by oral gavage delivery with MP101 (DNP) at 0.5, 1 and 5 mg/kg. […] The amount of time spent in the quadrant is an indicator of whether the mice remember the general location, with increased time indicating increased memory.
The amount of time spent in the quadrant is an indicator of whether the subject remembers the general location.

[7] = system: Experimental Autoimmune Encephalomyelitis (EAE); assay: Clinical scores in the EAE mouse model of MS; type: in vivo; conditions: FIG. 2c
BDNF [8] = assay: BDNF mRNA in brain by semi quantitative PCR after two weeks daily oral gavage; type: in vivo, Wildtype C57BL/6J mice; conditions: FIG. 1
Method: As described herein below, mitochondrial uncoupler DNP was tested in a range of doses in mice from 0.5 mg/kg of DNP to 10 mg/kg of DNP under oral chronic treatment to titrate the amount of drug in the brain required to induce increases of BDNF endogenously within the brain. […] Therefore, it was discovered that there is a specific and limited dose range of DNP that is necessary to achieve statistically significant survival and behavioral benefit for a host of diseases that benefit from increased BDNF levels. […]

C57Bl/6 mice = assay: 6-OHDA dopaminergic degeneration, cylinder test in wildtype mice (Parkinson's); type: in vivo, mouse
Method: as §1, §2

N171-82Q HD mice [9] = assay: Tapered beam and balance beam motor function in N171-82Q HD mice; type: in vivo, mouse; conditions: after 17-weeks of treatment, FIG. 8f
Method: as §3, §4

[10] = acute single dose post-ischemia; cited from earlier work

O=[N+]([O-])c1ccc(O)c([N+](=O)[O-])c1 [DNP, 2,4-dinitrophenol]
Motor coordination on rotating cylinder (rotarod) (SIRT3 KO mice): improved motor coordination
Medium spiny neurons, biomarker DARPP32 (N171-82Q HD mice [1]; 26-weeks of age, FIG. 8d): preserves medium spiny neurons
General neuronal loss, postsynaptic protein PSD95 levels (N171-82Q HD mice [1]; N171-82Q HD mice, FIG. 8e): preserves general neuronal loss
Myelin sheaths surrounding the axons and axons (electron microscopy) [2]: striking axonal protection
Myelin sheaths surrounding the axons and axons (electron microscopy) ([2]; listed as MP101): completely intact
Clasping test (Mecp2 mutant mice [3]): shows an effect
Brain volume loss in the cortex (MRI) (N171-82Q HD mice [4]; FIG. 8b): minor loss
Brain volume loss in the striatum (MRI) (N171-82Q HD mice [4]; FIG. 8c): minor loss
Intensity of the BDNF band (immunoblot) (BDNF [5]; 0.5 mg/kg and 1 mg/kg vs placebo): increases
Intensity of the BDNF band (immunoblot) (BDNF [5]; 5 mg/kg): plateau effect
BDNF protein level 3-weeks post treatment (BDNF [5]; EAE model, after 2 weeks of treatment, FIG. 2b): statistically elevated level of BDNF protein; also recorded: BDNF levels are elevated in the brain; also recorded: lasting effect
Ability to walk on the rotarod (Mecp2 mutant mice [6]): fall less and can handle higher speeds of rotation
Seizure time after kanic acid injection (wildtype mice; 1, 5 and 10 mg/kg oral gavage for 2-weeks before injection): shortening of seizure time
Neural protection from over-stimulation by kanic acid (wildtype mice; 1, 5 and 10 mg/kg oral gavage for 2-weeks, relative to Vehicle): provided neural protection
Cognition / short term memory in Morris Water Maze (distance, time in quadrant, entries) (APP/PS1 mice): improved in short term memory
Cognition / short term memory in Morris Water Maze (distance, time in quadrant, entries) (APP/PS1 mice; listed as MP101): improved cognition
Progression of the phenotype on clinical scores [7]: attenuation of disease progression
BDNF levels in the brain at the highest dose compared with lower doses (BDNF [8]; 10.0 mg/kg daily oral gavage, bell-shaped curve): reduced level of BDNF compared with the next two lower doses; also recorded: less BDNF is expressed
BDNF levels in the brain (mRNA, delta-delta CT, percent change relative to placebo) (BDNF [8]; 0.5, 1.0, 5.0 and 10.0 mg/kg daily oral gavage): induce BDNF within the brain; also recorded: increases BDNF levels in the brain
Protection of dopaminergic neurons from 6-OHDA (C57Bl/6 mice; 0.5, 1, 5 mg/kg for two weeks, C57Bl/6 or SIRT3 KO mice, FIG. 7): protected the dopaminergic neurons
Percent of left and right paw touches on the wall (cylinder) (C57Bl/6 mice; wildtype mice, 14-Days oral gavage, 6-OHDA in right striatum, FIG. 7a): improved
Motor function in the balance beam (N171-82Q HD mice [9]): improves motor function
Motor function in the tapered beam (N171-82Q HD mice [9]): improves motor function
Infarct volume [10]: reduce infarct volume
ROSs species [10]: lower ROSs species
